Experimental data reported in patent US11712438B2, “Phenyl derivatives as PGE2 receptor modulators” (IDORSIA PHARMACEUTICALS LTD, priority 2017, dated 2023).
pIC50: −log10 of the molar value.

Columns and labels:
[1] = target: PTGER2 (EP2) (Homo sapiens, UniProt P43116); assay: cell-based
[2] = target: PTRGER4 (EP4) (Homo sapiens, UniProt P35408); assay: cell-based;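 also: assay plate preincubated 15 min at 37 °C, after which PGE2 was added at 20 nM final and incubation continued 120 min at 37 °C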
Sequence of PTRGER4 (EP4) (P35408 whole entry): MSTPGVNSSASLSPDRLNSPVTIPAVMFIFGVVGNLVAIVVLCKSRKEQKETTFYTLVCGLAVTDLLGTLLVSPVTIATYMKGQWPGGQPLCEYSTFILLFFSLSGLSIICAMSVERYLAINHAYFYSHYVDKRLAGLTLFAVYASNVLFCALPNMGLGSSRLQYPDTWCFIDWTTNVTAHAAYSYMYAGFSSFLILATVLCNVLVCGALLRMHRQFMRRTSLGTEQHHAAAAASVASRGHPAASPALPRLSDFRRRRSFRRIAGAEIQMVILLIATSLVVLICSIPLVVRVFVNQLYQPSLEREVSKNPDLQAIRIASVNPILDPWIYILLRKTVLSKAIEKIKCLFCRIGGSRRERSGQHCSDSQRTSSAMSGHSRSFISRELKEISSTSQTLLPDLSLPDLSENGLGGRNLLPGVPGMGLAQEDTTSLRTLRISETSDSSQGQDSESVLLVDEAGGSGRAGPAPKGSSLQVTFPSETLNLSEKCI
Description: The assay is using the PathHunter™ HEK 293 PTGER2 and PTGER4 b-arrestin cell lines from DiscoverX. The system is based on the Enzyme Fragment Complementation Technology. Two complementing fragments of the b-galactosidase enzyme are expressed within stably transfected cells. The larger portion of b-gal, termed EA for Enzyme Acceptor, is fused to the C-terminus of b-arrestin 2. The smaller fragment, termed ProLink™ tag, is fused to PTGER2 (EP2) or PTRGER4 (EP4) at the C-terminus. Upon activation, b-arrestin is recruited which forces the interaction of ProLink and EA, allowing complementation of the two fragments of b-gal and the formation of a functional enzyme which is capable of hydrolysing the substrate and generating a chemiluminescent signal.
The HEK 293 PTGER4 b-arrestin cells (DiscoverX 93-030-4C1) are detached from culture dishes with a cell dissociation buffer (Invitrogen, 13151-014), and collected in growing medium (GM: DMEM+Glutamax-I (Invitrogen 32430)/10% FCS, 1% Penicilin/streptomycin). 5000 cells per well of a 384 well plate (white with white bottom Greiner 781080) are seeded in 20 ul per well of GM. Plate is incubated at 37° C., 5% CO2 for 24 hours.
Stock solutions of test compounds are made at a concentration of 10 mM in DMSO, and serially diluted in DMSO to concentrations required for inhibition dose response curves (tested concentration range 10 μM-2 nM or 1 μM-0.2 nM).
PGE2 (Cayman 14010, stock solution: 100 uM in DMSO) is used as agonist at 20 nM final concentration, corresponding to EC80.
Five microliters of diluted compounds are transferred into the assay plate. Plate is pre-incubated 15 minutes at 37° C. Then five microliters of PGE2 (final conc. 20 nM) are transferred into the assay plate. Plate is incubated 120 minutes at 37° C.
Twelve μl of reagent are transferred to the assay plate and incubate for 1 hour at room temperature in the dark. Luminescence counts are read on a BMG Fluostar Optima reader according to manufacturers instructions.
For each compound concentration calculate of the percentage of activity compared to DMSO control value as average±STDEV. (each concentration is measured in duplicate)
When compounds were measured multiple times, mean values are given.

Sequence of PTGER2 (EP2) (P43116 whole entry): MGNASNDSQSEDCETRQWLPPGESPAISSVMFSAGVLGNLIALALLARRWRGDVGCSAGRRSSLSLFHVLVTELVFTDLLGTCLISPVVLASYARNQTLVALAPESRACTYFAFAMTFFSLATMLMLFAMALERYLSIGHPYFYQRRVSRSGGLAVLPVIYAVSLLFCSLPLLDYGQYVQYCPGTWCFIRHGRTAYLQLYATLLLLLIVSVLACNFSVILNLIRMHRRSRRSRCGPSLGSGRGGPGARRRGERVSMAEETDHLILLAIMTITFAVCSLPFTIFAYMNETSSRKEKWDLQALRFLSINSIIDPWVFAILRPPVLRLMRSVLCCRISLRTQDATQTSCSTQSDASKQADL

| Structure (SMILES) | pIC50 [1] | pIC50 [2] |
| --- | --- | --- |
| COc1cc(C(N)=O)ccc1-c1cc(NCCc2c(F)cc(Br)cc2F)ncn1 [Example 292, 4-{6-[2-(4-Bromo-2,6-difluoro-phenyl)-ethylamino]-pyrimidin-4-yl}-3-methoxy-benzamide] | 7.00 | 6.05 |
| CCOc1cc(-c2cc(NCCc3c(F)cc(Br)cc3F)ncn2)ccc1-c1noc(=S)[nH]1 [Example 290, 3-(4-{6-[2-(4-Bromo-2,6-difluoro-phenyl)-ethylamino]-pyrimidin-4-yl}-2-ethoxy-phenyl)-[1,2,4]oxadiazole-5(4H)-thione] | 7.32 | 7.55 |
| CCCc1cc(-c2cc(NCCc3cc(Cl)c(C(F)(F)F)cc3OC)ncn2)ccc1C(=O)O [Example 197, 4-{6-[2-(5-Chloro-2-methoxy-4-trifluoromethyl-phenyl)-ethylamino]-pyrimidin-4-yl}-2-propyl-benzoic acid] | 6.27 | 6.79 |
| COc1cc(F)c(CCNc2cc(-c3ccc(C(=O)O)c(SC)c3)ncn2)c(F)c1 [Example 229, 4-{6-[2-(2,6-Difluoro-4-methoxy-phenyl)-ethylamino]-pyrimidin-4-yl}-2-methylsulfanyl-benzoic acid] | 7.09 | 6.56 |
| CCCn1cc(-c2cc(NCCc3c(F)cc(Br)cc3F)ncn2)cc1C(=O)O [Example 270, 4-{6-[2-(4-Bromo-2,6-difluoro-phenyl)-ethylamino]-pyrimidin-4-yl}-1-propyl-1H-pyrrole-2-carboxylic acid] | 6.50 | 6.15 |
| CCCc1cc(-c2cc(NCCc3c(F)cc(Br)cc3F)ncn2)ccc1C1(C(=O)O)CC1 [Example 172, 1-(4-{6-[2-(4-Bromo-2,6-difluoro-phenyl)-ethylamino]-pyrimidin-4-yl}-2-propyl-phenyl)-cyclopropanecarboxylic acid] | 6.36 | 6.40 |
| Fc1cc(Br)cc(F)c1CCNc1cc(-c2ccc3cc[nH]c3c2)ncn1 [Example 170, [2-(4-Bromo-2,6-difluoro-phenyl)-ethyl]-[6-(1H-indol-6yl)-pyrimidin-4-yl]amine] | 6.37 | 6.13 |
| CC(C)Oc1cc(-c2cc(NCCc3c(F)cc(Br)cc3F)ncn2)ccc1C(=O)O [Example 251, 4-{6-[2-(4-Bromo-2,6-difluoro-phenyl)-ethylamino]-pyrimidin-4-yl}-2-isopropoxy-benzoic acid] | 6.60 | 6.08 |
| Cc1cc(-c2cc(NCCc3c(F)cc(Br)cc3F)ncn2)cc(F)c1CC(=O)O [Example 256, (4-{6-[2-(4-Bromo-2,6-difluoro-phenyl)-ethylamino]-pyrimidin-4-yl}-2-fluoro-6-methyl-phenyl)-acetic acid] | 6.24 | 6.23 |
| COc1cc(C)c(C)cc1CCNc1cc(-c2ccc(C(=O)O)c(OC3CCC3)c2)ncn1 [Example 188, 2-Cyclobutoxy-4-{6-[2-(2-methoxy-4,5-dimethyl-phenyl)-ethylamino]-pyrimidin-4-yl}-benzoic acid] | 6.75 | 6.93 |
| Cc1cc(-c2cc(NCCc3c(F)cc(Br)cc3F)ncn2)ccc1CC(=O)O [Example 254, (4-{6-[2-(4-Bromo-2,6-difluoro-phenyl)-ethylamino]-pyrimidin-4-yl}-2-methyl-phenyl)-acetic acid] | 6.12 | 6.06 |
| COC(=O)c1ccc(-c2cc(NCCc3c(F)cc(Br)cc3F)ncn2)cc1SC [Example 246, 4-{6-[2-(4-Bromo-2,6-difluoro-phenyl)-ethylamino]-pyrimidin-4-yl}-2-methylsulfanyl-benzoic acid methyl ester] | 6.32 | 6.56 |
| CCc1cc(-c2cc(NCCc3c(F)cc(Br)cc3F)ncn2)cc(C)c1CC(=O)O [Example 257, (4-{6-[2-(4-Bromo-2,6-difluoro-phenyl)-ethylamino]-pyrimidin-4-yl}-2-ethyl-6-methyl-phenyl)-acetic acid] | 6.67 | 6.62 |
| COc1cc(C(F)(F)F)cc(F)c1CCNc1cc(-c2ccc(C(=O)O)c(SC)c2)ncn1 [Example 230, 4-{6-[2-(2-Fluoro-6-methoxy-4-trifluoromethyl-phenyl)-ethylamino]-pyrimidin-4-yl}-2-methylsulfanyl-benzoic acid] | 6.18 | 6.82 |
| CCCc1cc(-c2cc(NCCc3c(F)cc(Br)cc3F)ncn2)ccc1C(=O)NCCOC [Example 307, 4-{6-[2-(4-Bromo-2,6-difluoro-phenyl)-ethylamino]-pyrimidin-4-yl}-N-(2-methoxy-ethyl)-2-propyl-benzamide] | 6.66 | 6.11 |
| CCOc1cc(-c2cc(NCCc3c(F)cc(Br)cc3F)ncn2)ccc1C1(C(=O)O)CC1 [Example 171, 1-(4-{6-[2-(4-Bromo-2,6-difluoro-phenyl)-ethylamino]-pyrimidin-4-yl}-2-ethoxy-phenyl)-cyclopropanecarboxylic acid] | 6.17 | 6.24 |
| Fc1cc(Br)cc(F)c1CCNc1cc(-c2ccc3[nH]ncc3c2)ncn1 [Example 267, [2-(4-Bromo-2,6-difluoro-phenyl)-ethyl]-[6-(1H-indazol-5-yl)-pyrimidin-4-yl]amine] | 7.15 | 6.74 |

| Structure (SMILES) | pIC50 [1] | pIC50 [2] |
| --- | --- | --- |
| Cc1cc(-c2cc(NCCc3c(F)cc(Br)cc3F)ncn2)cc(C)c1CC(=O)O [Example 255, (4-{6-[2-(4-Bromo-2,6-difluoro-phenyl)-ethylamino]-pyrimidin-4-yl}-2,6-dimethyl-phenyl)-acetic acid] | 6.46 | 6.55 |
| CCOc1cc(-c2cc(NCCc3ccc(C(F)(F)F)cc3OC)ncn2)ccc1C(=O)O [Example 205, 2-Ethoxy-4-{6-[2-(2-methoxy-4-trifluoromethyl-phenyl)-ethylamino]-pyrimidin-4-yl}-benzoic acid] | 6.02 | 6.17 |
| CCOc1cc(-c2cc(NCCc3c(F)cccc3F)ncn2)ccc1-c1noc(=O)[nH]1 [Example 233, 3-(4-(64(2,6-Difluorophenethypamino)pyrimidin-4-yl)-2-ethoxyphenyl)-[1,2,4]oxadiazol-5(4H)-one] | 6.65 | 6.40 |
| CCc1cc(-c2cc(NCCc3c(F)cc(Br)cc3F)ncn2)ccc1C(=O)O [Example 249, 4-{6-[2-(4-Bromo-2,6-difluoro-phenyl)-ethylamino]-pyrimidin-4-yl}-2-ethyl-benzoic acid] | 6.96 | 6.33 |
| CCOc1cc(-c2cc(NCCc3c(F)cc(Br)cc3F)ncn2)ccc1C(N)=O [Example 297, 4-{6-[2-(4-Bromo-2,6-difluoro-phenyl)-ethylamino]-pyrimidin-4-yl}-2-ethoxy-benzamide] | 7.68 | 6.63 |
| O=C1Cc2cc(-c3cc(NCCc4c(F)cc(Br)cc4F)ncn3)ccc2N1 [Example 312, 5-{6-[2-(4-Bromo-2,6-difluoro-phenyl)-ethylamino]-pyrimidin-4-yl}-1,3-dihydro-indol-2-one] | 6.76 | 6.15 |
| CCOc1cc(-c2cc(NCCc3c(F)cc(Br)cc3F)ncn2)ccc1C(=O)NC [Example 298, 4-{6-[2-(4-Bromo-2,6-difluoro-phenyl)-ethylamino]-pyrimidin-4-yl}-2-ethoxy-N-methyl-benzamide] | 6.89 | 6.52 |
| CCOc1cc(-c2cc(NCCc3c(F)cc(Br)cc3F)ncn2)ccc1C(=O)C(=O)O [Example 239, (4-{6-[2-(4-Bromo-2,6-difluoro-phenyl)-ethylamino]-pyrimidin-4-yl}-2-ethoxy-phenyl)-oxo-acetic acid] | 6.52 | 6.41 |
| CSc1cc(-c2cc(NCCc3ccc(C(F)(F)F)cc3OC(F)F)ncn2)ccc1C(=O)O [Example 218, 4-{6-[2-(2-Difluoromethoxy-4-trifluoromethyl-phenyl)-ethylamino]-pyrimidin-4-yl}-2-methylsulfanyl-benzoic acid] | 6.16 | 6.04 |
| COc1cc(C)c(C)cc1CCNc1cc(-c2ccc(CC(=O)O)c(SC)c2)ncn1 [Example 191, (4-{6-[2-(2-Methoxy-4,5-dimethyl-phenyl)-ethylamino]-pyrimidin-4-yl}-2-methylsulfanyl-phenyl)-acetic acid] | 6.49 | 6.84 |
| CCOC(=O)CCc1sc(-c2cc(NCCc3c(F)cc(Br)cc3F)ncn2)cc1OCC [Example 247, 3-(5-{6-[2-(4-Bromo-2,6-difluoro-phenyl)-ethylamino]-pyrimidin-4-yl}-3-ethoxy-thiophen-2yl)-propionic acid ethyl ester] | 6.10 | 6.56 |
| CCOc1cc(-c2cc(NCCc3cc(F)c(F)cc3OC)ncn2)sc1C(=O)O [Example 179, 5-{6-[2-(4,5-Difluoro-2-methoxy-phenyl)-ethylamino]-pyrimidin-4-yl}-3-ethoxy-thiophene-2-carboxylic acid] | 6.85 | 6.50 |
| CCOc1c(C(=O)O)ccc(-c2cc(NCCc3c(F)cc(Br)cc3F)ncn2)c1F [Example 274, 4-{6-[2-(4-Bromo-2,6-difluoro-phenyl)-ethylamino]-pyrimidin-4-yl}-2-ethoxy-3-fluoro-benzoic acid] | 6.80 | 6.19 |
| CN1C(=O)NCc2ccc(-c3cc(NCCc4c(F)cc(Br)cc4F)ncn3)cc21 [Example 262, 7-{6-[2-(4-Bromo-2,6-difluoro-phenyl)-ethylamino]-pyrimidin-4-yl}-1-methyl-3,4-dihydro-1H-quinazolin-2-one] | 7.06 | 6.83 |
| CCCc1cc(-c2cc(NCCc3c(F)cc(Br)cc3F)ncn2)ccc1C(=O)NCC(C)(C)O [Example 308, 4-{6-[2-(4-Bromo-2,6-difluoro-phenyl)-ethylamino]-pyrimidin-4-yl}-N-(2-hydroxy-2-methyl-propyl)-2-propyl-benzamide] | 6.81 | 6.79 |
| Cc1cc(-c2cc(NCCc3c(F)cc(Br)cc3F)ncn2)cc(Cl)c1CC(=O)O [Example 264, (4-{6-[2-(4-Bromo-2,6-difluoro-phenyl)-ethylamino]-pyrimidin-4-yl}-2-chloro-6-methyl-phenyl)-acetic acid] | 6.43 | 6.33 |
